Reference: patent US11285167B2, “Synergistic nutritional neuroprotective compositions for ameliorating neural dysfunction” (CELAGENEX RESEARCH (INDIA) PVT. LTD., priority 2019, dated 2022)

Columns and labels:
[1] = tested on: Major depression disorder in Wistar rats; experiment: Overall behavioral evaluation in major depression disorder study (forced swim and open field tests); type: in vivo; conditions: oral 7 consecutive days
[2] = tested on: Valproic acid-induced autism disorder in albino Wistar rats; experiment: Open field test (hyperactivity) in Valproic acid-induced autism disorder; type: in vivo; conditions: for No. of squares visited for 6 mins: PND 40, VPA 400 mg/kg, oral daily PND 14 to PND 40, mean ± SEM; for Hyperactive behavior / locomotor activity, open field test (in words): PND 40, compared to Disease control or to Group-3 and Group-4
Procedure: The present study was to evaluate the effect of test substances on Valproic acid induced Autism spectrum disorder in wistar rats. The animals (50 animals) were divided into five groups each group consisting of 10 animals (5 animals per sex). Animals in Group-1 were treated with vehicle (0.5% CMC), Group-2 was treated with Valproic acid (VPA) 400 mg/kg via subcutaneous route, Group-3, Group-4 and Group-5 were treated with test substance Agmatine Sulphate (25.83 mg/kg), Nicotinamide Riboside chloride (6.46 mg/kg) and Agmatine Sulphate+Nicotinamide Riboside chloride (25.83 mg/kg+6.46 mg/kg) respectively, according to the body weight of animals. At the end of the experimental period, blood was collected from each group for biochemical analyses. On postnatal day 40 (PND 40), all the animals were exposed to the Morris water maze test and Open field test for specific time periods to determine the autism-like behaviors of the test substances. […] The experiment was performed in 14-day old male and female off springs. The weight of the rat pups on the first day of the experiment was 20-40 grams. Sodium Valproate at dose of 400 mg/kg was freshly prepared and administered via subcutaneous route to the rat pups on postnatal day 14 (PND 14). All the animals were divided into five groups and each group contained the same amount of male and female offspring (5 males and 5 females, per group). Animals in Group-1 served as Normal control and were treated with 0.5% CMC, Group-2 served as Disease control and were treated with VPA (400 mg/kg) via intraperitoneally (i.p.), whereas Group-3 was treated with Test-1 Agmatine Sulphate (25.83 mg/kg), Group-4 was treated with Test-2 Nicotinamide Riboside chloride (6.46 mg/kg) and Group-5 was treated with Test-1+Test-2 Agmatine Sulphate+Nicotinamide Riboside chloride (25.83 mg/kg+6.46 mg/kg). The assigned test substances were administered once daily from PND 14 to PND 40. In addition, behaviors of experimental animals were determined via Morris water maze and open field test. […] The dose volume administered to each rat was 10 ml/kg/day. Similarly, 0.5% CMC for Normal control and Disease control groups was administered orally at the same dose volume for a minimum of 26 consecutive days. The dose volume was calculated for individual animals on the first day of the treatment and was re-calculated according to the recent body weights recorded during the study. Daily individual dose volumes were recorded in the study records. All the animals were exposed to open field tests after the oral treatment with various tests, standard and control treatment in respective groups. The open field apparatus consisted of a wooden field of half square meter with a series of squares alternatively painted in black and white. […] Animals were treated with vehicle and the drug and were placed in the middle of the open field. Then the number of squares visited by the animals was counted for a 6 minute session. The number of entries by respective groups was recorded and used to determine the active time duration of animal post dosing. The determination of the hyperactivity of animals via this test was done on PND 40.

Lactate dehydrogenase = Lactate dehydrogenase (LDH) level in Valproic acid-induced autism disorder; type: in vivo, Albino wistar rats; conditions: for LDH: VPA 400 mg/kg, oral daily for 26 days, mean ± SEM; for Levels of lactate dehydrogenase (in words): compared to Disease control or to Group-3 and Group-4
Procedure: The present study was to evaluate the effect of test substances on Valproic acid induced Autism spectrum disorder in wistar rats. The animals (50 animals) were divided into five groups each group consisting of 10 animals (5 animals per sex). Animals in Group-1 were treated with vehicle (0.5% CMC), Group-2 was treated with Valproic acid (VPA) 400 mg/kg via subcutaneous route, Group-3, Group-4 and Group-5 were treated with test substance Agmatine Sulphate (25.83 mg/kg), Nicotinamide Riboside chloride (6.46 mg/kg) and Agmatine Sulphate+Nicotinamide Riboside chloride (25.83 mg/kg+6.46 mg/kg) respectively, according to the body weight of animals. At the end of the experimental period, blood was collected from each group for biochemical analyses. On postnatal day 40 (PND 40), all the animals were exposed to the Morris water maze test and Open field test for specific time periods to determine the autism-like behaviors of the test substances.
The experiment was performed in 14-day old male and female off springs. The weight of the rat pups on the first day of the experiment was 20-40 grams. Sodium Valproate at dose of 400 mg/kg was freshly prepared and administered via subcutaneous route to the rat pups on postnatal day 14 (PND 14). All the animals were divided into five groups and each group contained the same amount of male and female offspring (5 males and 5 females, per group). Animals in Group-1 served as Normal control and were treated with 0.5% CMC, Group-2 served as Disease control and were treated with VPA (400 mg/kg) via intraperitoneally (i.p.), whereas Group-3 was treated with Test-1 Agmatine Sulphate (25.83 mg/kg), Group-4 was treated with Test-2 Nicotinamide Riboside chloride (6.46 mg/kg) and Group-5 was treated with Test-1+Test-2 Agmatine Sulphate+Nicotinamide Riboside chloride (25.83 mg/kg+6.46 mg/kg). The assigned test substances were administered once daily from PND 14 to PND 40. In addition, behaviors of experimental animals were determined via Morris water maze and open field test.
The test item formulations were administered once each day by oral route at the dose levels of 25.83 mg/kg (agmatine sulphate), 6.46 mg/kg (nicotinamide riboside chloride) and 25.83 mg/kg+6.46 mg/kg/day (agmatine sulphate+nicotinamide riboside chloride), to rats of corresponding groups for a minimum of 26 consecutive days at approximately same time each day (±1 hour). The dose volume administered to each rat was 10 ml/kg/day. Similarly, 0.5% CMC for Normal control and Disease control groups was administered orally at the same dose volume for a minimum of 26 consecutive days. The dose volume was calculated for individual animals on the first day of the treatment and was re-calculated according to the recent body weights recorded during the study. Daily individual dose volumes were recorded in the study records.
Lactate dehydrogenase (also called lactic acid dehydrogenase or LDH) is an enzyme found in almost all body tissues. It plays an important role in cellular respiration, the process by which glucose (sugar) from food is converted into usable energy for our cells.

SMILES	Effect on major depression disorder (in words) [1]	No. of squares visited for 6 mins ([2]; Female)	No. of squares visited for 6 mins ([2]; Male)	Hyperactive behavior / locomotor activity, open field test (in words) [2]	LDH (Lactate dehydrogenase; Female) [U/L]	LDH (Lactate dehydrogenase; Male) [U/L]	Levels of lactate dehydrogenase (in words) (Lactate dehydrogenase)
N=C(N)NCCCCN.O=S(=O)(O)O [Agmatine sulphate]	positive effects on major depression disorder	85.40 ± 1.03	86.20 ± 2.06	significantly decreased hyperactive behavior	272.20 ± 3.34	268.20 ± 2.56	normalized levels of lactate dehydrogenase
NC(=O)c1ccc[n+]([C@@H]2O[C@H](CO)[C@@H](O)[C@H]2O)c1.[Cl-] [Nicotinamide Riboside chloride, nicotinamide riboside chloride]	positive effects on major depression disorder	87.20 ± 0.97	88.40 ± 0.98	significantly decreased hyperactive behavior	275.80 ± 1.71	274.00 ± 3.11	normalized levels of lactate dehydrogenase
